Experimental data taken from patent US4808711A, “Cephalosporin derivatives” (Sankei Pharmaceutical Co., Ltd., priority 1985, dated 1989).
Values after ≈ are worked out from the molar mass of the structure shown. Counter-ions that a name gives are not always drawn.

Experiments:
Format in all cases: cell-based
S. aureus TASAKI = experiment: MIC, S. aureus TASAKI; settings: Staphylococcus aureus; S. aureus TASAKI; standard method of Japanese Chemotherapy Association; read-out: MIC
Description: (§1) The minimum inhibition concentrations (MIC) of the compounds obtained by the present invention were measured according to the standard method of Japanese Chemotherapy Association.

S. aureus 209P JC-1 = experiment: MIC, S. aureus 209P JC-1; settings: Staphylococcus aureus; S. aureus 209P JC-1; read-out: MIC
Description: as §1

S. aureus ATCC25923 = experiment: MIC, S. aureus ATCC25923; settings: Staphylococcus aureus; S. aureus ATCC25923; read-out: MIC
Description: as §1

S. aureus Smith = experiment: MIC, S. aureus Smith; settings: Staphylococcus aureus, read-out: MIC
Description: as §1

S. epidermidis ATCC14990 = experiment: MIC, S. epidermidis ATCC14990; settings: Staphylococcus epidermidis, read-out: MIC
Description: as §1

S. faecalis IFO3826 = experiment: MIC, S. faecalis IFO3826; settings: Enterococcus faecalis, read-out: MIC
Description: as §1

B. subtilis ATCC6633 = experiment: MIC, B. subtilis ATCC6633; settings: Bacillus subtilis; B. subtilis ATCC6633; read-out: MIC
Description: as §1

S. anatum 677-69 = experiment: MIC, S. anatum 677-69; settings: Salmonella enterica, 67769, read-out: MIC
Description: as §1

S. newport 563 = experiment: MIC, S. newport 563; settings: Salmonella enterica, read-out: MIC
Description: as §1

S. paratyphi A 144-12-93 = experiment: MIC, S. paratyphi A 144-12-93; settings: Salmonella enterica, PARATYPHI
Description: as §1

S. paratyphi B = experiment: MIC, S. paratyphi B; settings: Salmonella enterica, PARATYPHI
Description: as §1

S. paratyphi C 33-76 = experiment: MIC, S. paratyphi C 33-76; settings: Salmonella enterica, PARATYPHI
Description: as §1

S. typhi 1099-77 = experiment: MIC, S. typhi 1099-77; settings: Salmonella enterica, TYPHI
Description: as §1

S. typhimurium ATCC13311 = experiment: MIC, S. typhimurium ATCC13311; settings: Salmonella enterica, read-out: MIC
Description: as §1

S. typhimurium IFO 12529 = experiment: MIC, S. typhimurium IFO 12529; settings: Salmonella enterica, read-out: MIC
Description: as §1

S. boyadii CDC 2064-59 = experiment: MIC, S. boyadii CDC 2064-59
Description: as §1

S. dysenteriae 4379-60 = experiment: MIC, S. dysenteriae 4379-60; settings: Shigella dysenteriae, 437960
Description: as §1

[1] = test system: S. flexneri 2a CDC 4807-62; experiment: MIC, S. flexneri 2a CDC 4807-62; settings: Shigella flexneri, read-out: MIC
Description: as §1

S. flexneri Y NCTC 9730 = experiment: MIC, S. flexneri Y NCTC 9730; settings: Shigella flexneri, NCTC9730, read-out: MIC
Description: as §1

S. sonnei SH72-415 = experiment: MIC, S. sonnei SH72-415; settings: Shigella sonnei, SH72415, read-out: MIC
Description: as §1

E. coli ATCC25922 = experiment: MIC, E. coli ATCC25922; settings: Escherichia coli, read-out: MIC
Description: as §1

E. coli NIHJ JC-2 = experiment: MIC, E. coli NIHJ JC-2; settings: Escherichia coli, NIHJJC2, read-out: MIC
Description: as §1

C. freundii IFO12681 = experiment: MIC, C. freundii IFO12681; settings: Citrobacter freundii, read-out: MIC
Description: as §1

S. marcescens IFO12648 = experiment: MIC, S. marcescens IFO12648; settings: Serratia marcescens, read-out: MIC
Description: as §1

E. cloacae ATCC13047 = experiment: MIC, E. cloacae ATCC13047; settings: Enterobacter cloacae
Description: as §1

K. pneumoniae ATCC27736 = experiment: MIC, K. pneumoniae ATCC27736; settings: Klebsiella pneumoniae, read-out: MIC
Description: as §1

P. mirabilis IFO3849 = experiment: MIC, P. mirabilis IFO3849; settings: Proteus mirabilis, read-out: MIC
Description: as §1

P. rettgeri ATCC14505 = experiment: MIC, P. rettgeri ATCC14505; settings: Providencia rettgeri, read-out: MIC
Description: as §1

P. vulgaris ATCC6380 = experiment: MIC, P. vulgaris ATCC6380; settings: Proteus vulgaris, read-out: MIC
Description: as §1

P. vulgaris ATCC6398 = experiment: MIC, P. vulgaris ATCC6398; settings: Proteus vulgaris, read-out: MIC
Description: as §1

P. aeruginosa ATCC9721 = experiment: MIC, P. aeruginosa ATCC9721; settings: Pseudomonas aeruginosa; P. aeruginosa ATCC9721; read-out: MIC
Description: as §1

P. cepacia ATCC25416 = experiment: MIC, P. cepacia ATCC25416; settings: Burkholderia cepacia, read-out: MIC
Description: as §1

P. maltophilia ATCC13637 = experiment: MIC, P. maltophilia ATCC13637; settings: Stenotrophomonas maltophilia
Description: as §1

P. putida ATCC12633 = experiment: MIC, P. putida ATCC12633; settings: Pseudomonas putida
Description: as §1

P. fluorescens ATCC13525 = experiment: MIC, P. fluorescens ATCC13525; settings: Pseudomonas fluorescens, read-out: MIC
Description: as §1

Structure (SMILES)	MIC (S. aureus TASAKI) [µg/mL]	MIC (S. aureus 209P JC-1) [µg/mL]	MIC (S. aureus ATCC25923) [µg/mL]	MIC (S. aureus Smith) [µg/mL]	MIC (S. epidermidis ATCC14990) [µg/mL]	MIC (S. faecalis IFO3826) [µg/mL]	MIC (B. subtilis ATCC6633) [µg/mL]	MIC (S. anatum 677-69) [µg/mL]	MIC (S. newport 563) [µg/mL]	MIC (S. paratyphi A 144-12-93) [µg/mL]	MIC (S. paratyphi B) [µg/mL]	MIC (S. paratyphi C 33-76) [µg/mL]	MIC (S. typhi 1099-77) [µg/mL]	MIC (S. typhimurium ATCC13311) [µg/mL]	MIC (S. typhimurium IFO 12529) [µg/mL]	MIC (S. boyadii CDC 2064-59) [µg/mL]	MIC (S. dysenteriae 4379-60) [µg/mL]	MIC [1] [µg/mL]	MIC (S. flexneri Y NCTC 9730) [µg/mL]	MIC (S. sonnei SH72-415) [µg/mL]	also measured
Cn1nnnc1SCC1=C(C(=O)O)N2C(=O)C(NC(=O)C(=NOCC(=O)NN=Cc3ccc(O)c(O)c3)c3csc(N)n3)C2SC1 (stereo not shown) [Example 2, 7-{2-[2-amino-1,3-thiazol-4-yl]-2-[3-(3,4-dihydroxybenzylidene)carbazoyl]methoxyiminoacetamido}-3-[(1-methyl-1,2,3,4-tetrazol-5-yl)thiomethyl]-3-cephem-4-carboxylic acid.hydrochloride]	1.56	0.78	0.78	3.13	0.78	> 100	0.39	0.05	0.05	0.05	0.025	0.012	≤ 0.006	0.05	0.39	0.78	0.025	0.1	0.78	0.05	MIC (E. coli ATCC25922): 0.2 µg/mL; MIC (E. coli NIHJ JC-2): 0.39 µg/mL; MIC (C. freundii IFO12681): 0.39 µg/mL; MIC (S. marcescens IFO12648): 0.39 µg/mL; MIC (E. cloacae ATCC13047): 3.13 µg/mL; MIC (K. pneumoniae ATCC27736): 0.025 µg/mL; MIC (P. mirabilis IFO3849): 0.2 µg/mL; MIC (P. rettgeri ATCC14505): 0.39 µg/mL; MIC (P. vulgaris ATCC6380): 0.2 µg/mL; MIC (P. vulgaris ATCC6398): 0.05 µg/mL; MIC (P. aeruginosa ATCC9721): 0.2 µg/mL; MIC (P. cepacia ATCC25416): 0.78 µg/mL; MIC (P. maltophilia ATCC13637): 1.56 µg/mL; MIC (P. putida ATCC12633): 1.56 µg/mL; MIC (P. fluorescens ATCC13525): 12.5 µg/mL
Cc1nnc(SCC2=C(C(=O)O)N3C(=O)C(NC(=O)C(=NOCC(=O)NNC(=O)c4ccc(O)c(O)c4)c4csc(N)n4)C3SC2)s1 (stereo not shown) [Example 59]	1.56 (≈ 2.16 µM)	0.39 (≈ 0.54 µM)	0.78 (≈ 1.08 µM)	0.78 (≈ 1.08 µM)	0.39 (≈ 0.54 µM)	> 100	0.39 (≈ 0.54 µM)	0.025 (≈ 0.0346 µM)	0.05 (≈ 0.0693 µM)	0.025 (≈ 0.0346 µM)	0.012 (≈ 0.0166 µM)	0.012 (≈ 0.0166 µM)	≤ 0.006	0.1 (≈ 0.139 µM)	0.1 (≈ 0.139 µM)	0.39 (≈ 0.54 µM)	0.05 (≈ 0.0693 µM)	0.2 (≈ 0.277 µM)	0.78 (≈ 1.08 µM)	0.05 (≈ 0.0693 µM)	MIC (E. coli ATCC25922): 0.1 µg/mL (≈ 0.139 µM); MIC (E. coli NIHJ JC-2): 0.39 µg/mL (≈ 0.54 µM); MIC (C. freundii IFO12681): 0.78 µg/mL (≈ 1.08 µM); MIC (S. marcescens IFO12648): 0.39 µg/mL (≈ 0.54 µM); MIC (E. cloacae ATCC13047): 1.56 µg/mL (≈ 2.16 µM); MIC (K. pneumoniae ATCC27736): 0.012 µg/mL (≈ 0.0166 µM); MIC (P. mirabilis IFO3849): 0.39 µg/mL (≈ 0.54 µM); MIC (P. rettgeri ATCC14505): 0.78 µg/mL (≈ 1.08 µM); MIC (P. vulgaris ATCC6380): 0.39 µg/mL (≈ 0.54 µM); MIC (P. vulgaris ATCC6398): 0.05 µg/mL (≈ 0.0693 µM); MIC (P. aeruginosa ATCC9721): 0.1 µg/mL (≈ 0.139 µM); MIC (P. cepacia ATCC25416): 0.39 µg/mL (≈ 0.54 µM); MIC (P. maltophilia ATCC13637): 0.78 µg/mL (≈ 1.08 µM); MIC (P. putida ATCC12633): 0.78 µg/mL (≈ 1.08 µM); MIC (P. fluorescens ATCC13525): 12.5 µg/mL (≈ 17.3 µM)
